Measurements published in patent US4788304A, “Phospholipase A2 inhibitors” (American Home Products Corporation, priority 1987, dated 1988).

Experiments:
[1] = tested on: oxazolone-induced contact hypersensitivity in the mouse ear; experiment: Oxazolone-induced contact hypersensitivity in the mouse ear; format: in vivo, mouse (Swiss Webster); details: dosed at 1 mg/ear
Method: The assay of this Example measures the ability of the compounds in the scope of the invention to inhibit oxazolone-induced contact hypersensitivity in the mouse ear.
Female, Swiss Webster mice (8 weeks old) are placed into groups of 6 and the abdominal area of each is shaved. The mice are sensitized to oxazolone (4-ethoxymethylene-2-phenyl-oxazol-5-one) by applying 100 μl of a 2% solution in 95% alcohol directly onto the shaved abdomen using an automatic pipette and rubbing the residual oxazolone into the skin with a round wooden stick. Six days after sensitization each mouse is challenged by applying 20 μl of a 2% oxazolone solution in 95% alcohol to the right ear (10 μl on each side) and 20 μl of alcohol alone to the left ear. Compounds for topical applications are prepared in acetone and administered to the right ear 30 min after challenge or 30 min prior to and 5 h after challenge; acetone (vehicle) is applied to the left ear. Compounds for oral administration are suspended in 0.5 ml of 0.5% methyl cellulose and given ten min prior to challenge. Ear thickness of both ears is measured in mm×10^-2 at 24 and 48 h after challenge using an Oditest caliper. Edema is calculated by subtracting the left ear thickness from the right ear thickness. Drug effects are determined by calculating the percentage change from control for each time period.

[2] = tested on: synthesis of LTB4 by rat glycogen-elicited polymorphonuclear leukocytes (PMN); experiment: Inhibition of LTB4 synthesis by rat glycogen-elicited polymorphonuclear leukocytes (PMN); format: cell-based, rat (female Wistar); details: Leukocyte, A23187-stimulated rat PMN
[3] = tested on: bronchospasm induced in guinea pigs by endogenous mediators of the bronchoconstriction; experiment: Ovalbumin-induced bronchospasm in guinea pigs; format: in vivo, guinea pig (Hartley); details: Cavia porcellus; intraduodenally administered, 10 minutes before intravenously administered ovalbumin challenge
Method: The assay of this Example measures the in vivo ability of the compounds in the scope of the invention to inhibit the bronchospasm induced in guinea pigs by endogenous mediators of the bronchoconstriction.
Male Hartley strain guinea pigs weighing 250-350 g are sensitized to chicken ovalbumin (OA) (10 mg i.p.) on days 1 and 3 and used starting on day 26. The animals are anesthetized with pentobarbital sodium (50 mg/kg, i.p.), bilateral vagotomy is performed, and the jugular vein is cannulated for injection of drugs and the carotid artery for monitoring blood pressure. The trachea is cannulated for artificial ventilation by miniature Starling pump and for indirect measurement of respiratory volume changes as described, infra. Succinylcholine (2 mg/kg, i.v.) is administered to arrest spontaneous respiration. […]
Respiratory volume changes are determined by a calibrated piston whose travel is recorded, via a linear transducer, on a Beckman Dynograph recorder. Maximal bronchoconstrictor volume is determined by clamping off the trachea at the end of the experiment. Overflow volumes at minutes 1, 3 and 5 are obtained from the recorded charts.
Area under the volume overflow curve (AUC) is estimated, using the overflow values at 1, 3 and 5 minutes, and expressed as a percentage of the maximal overflow AUC (equation 1): [formula] […]

## COC(=O)C1(C(=O)CCCCOc2ccc(Cl)cc2)CO1 (stereo not drawn) [Example 6A, 2-[5-(4-Chlorophenoxy)-1-oxopentyl]-2-oxiranecarboxylic acid methyl ester]
[1]
  % Inhibition (oxazolone contact hypersensitivity): 34.3%
[2]
  inhibition at 10 µM: 11%
[3]
  ED50: 13.5 mg/kg
